Like-named read-outs stand apart in the source and are kept apart here. Marks after values point to notes of the source that are not given here.
Assays:
Caco-2 cell lysates = test: Biological stability in Caco-2 cell lysates; assay type: in vitro ADME, human; conditions: for stability in HBSS at pH 6 (blank control) / stability in Caco-2 cell lysates / stability in inactive Caco-2 cell lysates: individual compound 100 µM; for stability in HBSS at pH 6 (blank control): HBSS pH 6, up to 24 h; for stability in Caco-2 cell lysates: active cell lysates, within 24 h; for stability in inactive Caco-2 cell lysates: inactive (heated) cell lysates
Procedure: Caco-2 cells were cultured in T75 flasks at a seeding density of 2 × 10^6 cells/flask for 12–15 days. The cell lysate was freshly prepared by washing the cells twice with ice-cold HBSS at pH 6 (12 mL). The cells were then collected by scraping and resuspending in ice-cold HBSS at pH 6 (7.5 mL/flask). The cell suspension was vortexed and sonicated in an ice water bath for 30 min to obtain the lysate, which was kept on ice until use, and its cellular protein concentration was determined using a BCA™ protein assay kit (Thermo Fisher Scientific, Rockford, IL, USA) with bovine serum albumin as a reference standard.
Many phenolic compounds were subject to sulfation and glucuronidation by Caco-2 cells at concentrations higher than 20 μM [16, 21, 43] and the metabolites of GA, MG and PGG could not be observed in Caco-2 transport experiment. Therefore, the concentration of the standard pure compounds used in this study was higher than that used in the chemical stability experiment. After preparing the cell lysate, the test compounds were prepared by dissolution in HBSS at pH 6 and then added to the lysates for a final concentration of 1.08 mg/mL protein to obtain final individual concentrations of 100 μM for GA, MG and PGG and 0.75 mg/mL for MSKE, which is equivalent to concentrations of 55.12 ± 4.57 µM GA, 7.56 ± 0.85 µM MG and 110.02 ± 17.52 µM PGG. The mixtures were then incubated in a water bath at 37 °C for 24 h, and samples (50 µL for standard compounds, and 200 µL for MSKE) were collected at 0, 4, 6 and 24 h. Each sample was then added to an ice-cold 50% methanol (150 µL for GA, MG and PGG, and 600 µL for MSKE) to stop the reaction, vortexed and centrifuged at 15,500 rpm for 15 min, and the supernatant was injected into the UPLC for analysis.
(§1) The chemical and biological stabilities of the phenolic compounds were expressed as the concentration of the analyte at different time points relative to the concentration of the same analyte at time zero multiplied by 100 (% recovery).

[1] = Chemical stability in HBSS at pH 5, 6, 7 and 8; assay type: physicochemical
Procedure: The chemical stability of GA, MG, PGG and MSKE was determined in HBSS at pH 5, 6, 7 and 8. The test compounds were added to HBSS to obtain the final concentrations (2 and 20 μM) for each standard compound or MSKE (0.25 mg/mL), which is equivalent to concentrations of 26.70 ± 1.35 µM GA, 4.90 ± 0.38 µM MG and 27.09 ± 8.01 µM PGG. The solutions at pH 5, 7 and 8 were then incubated in a water bath at 37 °C for 4 h, whereas the solutions at pH 6 were incubated for 8 h. Samples (200 μL) were collected at different time intervals (0, 1, 2, 3 and 4 h or 0, 1, 2, 4, 6 and 8 h) and then vortexed and centrifuged at 15,500 rpm for 15 min. The supernatant was injected into the UPLC for analysis. All experiments were performed in triplicate.
as §1

[2] = Excretion in urine and feces after oral administration in rats; assay type: in vivo, Sprague-Dawley rats; conditions: for dose excreted: Sprague-Dawley, rat, blood, urine and feces, oral, 0-24 h, read-out: % recovery (total mass recovery: blood + urine + feces / initial mass); for Total Mass in Feces (0−24 h) / Total Mass in Urine (0−24 h): p.o.
Procedure: SD rats (five rats/group) were individually housed in stainless-steel metabolic cages, which allowed for the separation and collection of urine and feces. The rats were fasted overnight with ad libitum access to water prior to the day of the experiment. After a rat was anesthetized with isoflurane gas, the prepared suspension of test compound in an oral suspension vehicle was administered to the animals via oral gavage at a dose of 20 mg/kg for each compound in the mixture of MG and PGG or at 143 mg/kg MSKE, which is equivalent to approximate doses of 20 mg/kg PGG and 0.13 mg/kg MG. Subsequently, the rats’ tails were snipped near the tip to collect blood samples (approximately 50 µL), which were collected in heparinized tubes at 0, 0.50, 1, 2, 4, 6, 8 and 24 h. To investigate the excretion of phenolic compounds, urine and feces were collected between 0–24 h post-administration into tubes containing penicillin G (200 mg) and dry tubes, respectively, which were pre-weighted before use. After completing the pharmacokinetic study, the urine volume and dry feces weights were recorded, and all samples were stored at −80 °C until analysis.
The blood and urine samples were prepared according to our previously reported methods. The fecal samples were prepared by adding 30 mL methanol to the sample, and the mixture was then vortexed and sonicated for 30 min to obtain the fecal lysates, which were extracted via the same method.
The pharmacokinetic parameters of MG and PGG were calculated based on the non-compartmental method using WinNonlin 3.3 (Pharsight Corporation, Mountain View, CA, USA). The total mass of analytes was calculated according to the following equations (Equations (3)–(6)): The mass recovery (%) = (total mass in blood + total mass in urine + total mass in feces)/initial mass of analyte (3) Total mass in blood = C24h in blood × rat blood volume (70 mL/kg of body weight) (4) Total mass in urine = C0–24h in urine × volume of urine (0–24 h) (5) Total mass in feces = C0–24h in fecal lysate × volume of fecal lysate (30 mL) (6) where C24h in the blood is the concentration of analyte found in the blood sample at 24 h, and C0–24h in the urine and C0–24h in the fecal lysate are the concentrations of the analyte found in the urine and fecal samples, respectively, between 0 and 24 h.

[3] = as principle in MSKE 0.25 mg/mL, pH 5, 6 or 7, 4 h
[4] = as principle in MSKE 0.25 mg/mL, pH 6, 8 h
[5] = as principle in MSKE 0.25 mg/mL, pH 8, 4 h
[6] = individual compound 2 and 20 µM, pH 5 or 7, 4 h, 37 °C
[7] = MSKE 143 mg/kg (20 mg/kg PGG and 0.13 mg/kg MG)
[8] = mixture of MG and PGG 20 mg/kg each

In the case of COC(=O)c1cc(O)c(O)c(O)c1 [MG, methyl gallate], the “relative recoveries after incubation with Caco-2 cell lysates” value (Caco-2 cell lysates; as principle in MSKE 0.75 mg/mL, 24 h, relative to HBSS) is reported as “decreased relative recoveries”, the “stability in HBSS at pH 6 (blank control)” value (Caco-2 cell lysates) is reported as “stable” and the “stability in Caco-2 cell lysates” value (Caco-2 cell lysates) is reported as “degraded”. The “stability in inactive Caco-2 cell lysates” value (Caco-2 cell lysates; 24 h) was “stable”, the “chemical stability in HBSS” value [1, 3] was “increased recoveries” and the “chemical stability in HBSS” value [1, 4] was “dramatically increased recoveries”. The “chemical stability in HBSS” value [1, 5] was “slightly decreased recovery”, the “chemical stability in HBSS” value [1, 6] was “only stable at pH 7” and the dose excreted [2, 7] was 73.4 ± 30%. For the same molecule, the dose excreted [2, 8] was < 2%, the “Total Mass in Feces (0−24 h)” value [2, 7] was 18.35 ± 10.14 ^b µg and the “Total Mass in Urine (0−24 h)” value [2, 7] was 9.81 ± 2.81 ^b µg. The “Total Mass in Feces (0−24 h)” value [2, 8] was 3.25 ± 1.73 µg and the “Total Mass in Urine (0−24 h)” value [2, 8] was 100.36 ± 74.67 µg.

In the case of O=C(O)c1cc(O)c(O)c(O)c1 [GA, Gallic acid], the “stability in HBSS at pH 6 (blank control)” value (Caco-2 cell lysates) is reported as “stable”, the “stability in Caco-2 cell lysates” value (Caco-2 cell lysates) is reported as “degraded” and the “stability in inactive Caco-2 cell lysates” value (Caco-2 cell lysates; 24 h) is reported as “stable”. For the same molecule, the “chemical stability in HBSS” value [1, 3] was “stable”, the “chemical stability in HBSS” value [1, 4] was “moderately increased recovery” and the “chemical stability in HBSS” value [1, 5] was “decomposed”. For the same molecule, the “chemical stability in HBSS” value [1, 6] was “only stable at pH 7”, the “Total Mass in Feces (0−24 h)” value [2, 7] was 39.47 ± 17.44 ^b µg and the “Total Mass in Urine (0−24 h)” value [2, 7] was 54.54 ± 26.59 µg. The “Total Mass in Feces (0−24 h)” value [2, 8] was 9.64 ± 1.91 µg and the “Total Mass in Urine (0−24 h)” value [2, 8] was 42.95 ± 26.88 µg.

— PMC6332320, “Factors Influencing Oral Bioavailability of Thai Mango Seed Kernel Extract and Its Key Phenolic Principles” (Molecules, 2015)
